Laboratory results: US12448388B2, “PRMT5 inhibitors and uses thereof” (Gilead Sciences, Inc., priority 2023, dated 2025)
Like-named read-outs stand apart in the source and are kept apart here.

Experiments:
[1] = Pharmacokinetics in cassette in male cynomolgus monkeys for Kp measurement; format: in vivo; details: cynomolgus monkey, 0.5 mg/kg, intravenous
Protocol: F.1 Test Animal: Cynomolgus Monkeys from Labcorp 8298417 Maintained at Labcorp-Madison
F.2 Pharmaceutical Formulation and Administration
Test compound was dissolved in the vehicle of 10% DMSO, 10% ethanol, 40% polyethylene glycol 300, and 40% propylene glycol to get 0.5 mg/mL test compound solution. The compound was administered by intravenous administration at a dose of 1 mL/kg. The intravenous dose was administered as a bolus injection followed by an approximately 2-hour infusion via an indwelling catheter in a saphenous or cephalic vein. Fasting was not required.
• Collection time: • PK for Plasma: Predose, 0.25, 1, 1.5 and 2 hours postdose (based on start of infusion) • PK for Whole Blood: 1.5 hour postdose • Anticogulant: K2EDTA • Volume: • PK for Plasma: Approximately 0.5 mL • PK for Whole Blood: Approximately 0.1 mL • Collection Site: Femoral vein; saphenous or cephalic vein

[2] = PK data (IV/PO) in Beagle dog; details: in vivo; for clearance: read-out: Observed CL (converted); for bioavailability: PO 0.5 mg/Kg; for Vd: read-out: Vss
hERG = target: T1, hERG (Homo sapiens, UniProt Q12809); test: hERG assay (automated patch clamp, QPatch HT); format: cell-based; details: human, HEK293 cells stably expressing hERG, * = accurate hERG measurement may be limited by compound solubility
T1 construct: host or cells: HEK293
T1 sequence (Q12809 whole entry): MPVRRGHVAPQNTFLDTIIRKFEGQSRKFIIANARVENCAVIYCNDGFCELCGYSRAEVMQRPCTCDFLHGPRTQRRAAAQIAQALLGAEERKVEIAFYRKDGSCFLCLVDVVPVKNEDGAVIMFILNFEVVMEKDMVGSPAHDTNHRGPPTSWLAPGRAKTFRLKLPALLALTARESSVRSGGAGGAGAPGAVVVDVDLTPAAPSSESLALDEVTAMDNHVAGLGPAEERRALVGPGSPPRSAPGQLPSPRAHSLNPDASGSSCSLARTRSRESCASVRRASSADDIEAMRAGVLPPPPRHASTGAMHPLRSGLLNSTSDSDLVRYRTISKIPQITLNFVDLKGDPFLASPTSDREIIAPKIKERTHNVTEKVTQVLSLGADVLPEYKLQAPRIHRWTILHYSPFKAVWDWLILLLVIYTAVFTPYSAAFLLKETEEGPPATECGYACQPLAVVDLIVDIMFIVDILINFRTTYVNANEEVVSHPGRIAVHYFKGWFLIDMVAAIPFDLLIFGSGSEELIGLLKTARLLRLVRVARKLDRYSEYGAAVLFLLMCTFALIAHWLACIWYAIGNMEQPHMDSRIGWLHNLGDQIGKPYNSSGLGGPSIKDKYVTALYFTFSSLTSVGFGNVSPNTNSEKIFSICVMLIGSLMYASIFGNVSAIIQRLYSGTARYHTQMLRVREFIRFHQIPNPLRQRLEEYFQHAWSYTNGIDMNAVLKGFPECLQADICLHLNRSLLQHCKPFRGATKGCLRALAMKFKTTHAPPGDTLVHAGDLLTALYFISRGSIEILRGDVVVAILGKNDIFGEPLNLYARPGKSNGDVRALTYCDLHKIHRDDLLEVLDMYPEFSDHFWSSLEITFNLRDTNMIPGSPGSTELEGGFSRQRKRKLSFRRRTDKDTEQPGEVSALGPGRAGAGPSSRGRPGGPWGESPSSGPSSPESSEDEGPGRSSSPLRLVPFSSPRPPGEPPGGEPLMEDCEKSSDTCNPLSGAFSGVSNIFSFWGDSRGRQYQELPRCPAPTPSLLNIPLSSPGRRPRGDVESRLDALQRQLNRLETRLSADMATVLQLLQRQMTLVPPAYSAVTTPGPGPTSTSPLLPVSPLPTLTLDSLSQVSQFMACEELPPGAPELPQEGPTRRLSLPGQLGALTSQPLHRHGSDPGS
Protocol: Cell lines and cell culture: The HEK293 cell line stably expressing the hERG ion channel was provided from Charles River laboratories. Cells were maintained in tissue culture incubators per Charles River Laboratories SOP. Stocks were maintained in cryogenic storage. HEK293 cells were stably transfected with hERG cDNA.
Automated Patch Clamp Procedures: In preparation for a recording session, intracellular solution was loaded into the intracellular compartments of the QPlate and cell suspension was pipetted into the extracellular compartments. After establishment of a whole-cell configuration, membrane currents were recorded using up to 48 parallel patch clamp amplifiers in the QPatch HT® system. The current records were sampled at 2000 Hz and low-pass Bessel filtered at 400 Hz.
Valid whole-cell recordings met the following criteria: • 1. Membrane resistance ≥200 MΩ. • 2. Leak current 25% channel current or subtracted.
hERG Test Procedures: Onset and block of hERG current was measured using a stimulus voltage pattern consisting of a 500 ms prepulse to −40 mV (leakage subtraction), a 2-second activating pulse to +40 mV followed by a 2-second test pulse to −40 mV. The pulse pattern was repeated continuously at 10 s intervals from a holding potential of −80 mV. Peak tail current was measured during the −40 mV test pulse. Leakage current was calculated from the current amplitude evoked by the −40 mV prepulse and subtracted from the total membrane current record.
Data Analysis: Data acquisition and analysis were performed using the QPatch Assay Software (Sophion Bioscience A/S, Denmark). Steady state was defined by the limiting constant rate of change with time (linear time dependence). The steady state before and after test article application were used to calculate the percentage of current inhibited at each concentration. Run down, a time-dependent reduction of current amplitude, may be compensated for in the QPatch Assay Software using standard system tools. Concentration-response data was fit to an equation of the following form: […]
Where [Test] is the concentration of test compound, IC50 is the concentration of the test compound producing half-maximal inhibition, N is the Hill coefficient and % Block is the percentage of current inhibited at each concentration of the test article. Nonlinear least squares fits will be solved with the Solver add-in for Excel 2000 or later (Microsoft, Redmond, WA).

[3] = brain Kp = [brain]/[plasma], cyno, read-out: Cyno brain Kp
[4] = brain Kpu,u = Kp * (plasma free/rat brain free), read-out: Cyno brain Kpu,u

Compound	Kp [1, 3]	Kp [1, 4]	half-life ([2]; IV 0.5 mg/Kg)	clearance ([2]; IV 0.5 mg/Kg)	bioavailability [2]	half-life ([2]; IV 0.25 mg/Kg)	clearance ([2]; IV 0.25 mg/Kg)	Vd ([2]; IV 0.25 mg/Kg)	Vd ([2]; IV 0.5 mg/Kg)	IC50 (hERG)
Nc1nc2cnc(C(=O)N3CCC[C@@H]4Oc5cc(OC(F)(F)F)cc(F)c5[C@@H]43)cc2n2cncc12 (single isomer, unassigned) [Fg-55]	0.95	0.12				6 h	4.33 mL/min/kg	1.8 L/kg		
Cc1ncc2c(N)nc3cnc(C(=O)N4CCC[C@@H]5Oc6cc(OC(F)(F)F)ccc6[C@@H]54)cc3n12 [Ff-340, (4-amino-1-methylimidazo[1,5-a]pyrido[3,4-e]pyrazin-8-yl)((4aS,9bS)-7-(trifluoromethoxy)-3,4,4a,9b-tetrahydrobenzofuro[3,2-b]pyridin-1(2H)-yl)methanone]	1.1	0.32								
Cc1ncn2c1c(N)nc1cnc(C(=O)N3CCC[C@@H]4Oc5cc(C(F)(F)F)ccc5[C@@H]43)cc12 [Ff-499, (4-amino-3-methylimidazo[1,5-a]pyrido[3,4-e]pyrazin-8-yl)((4aS,9bS)-7-(trifluoromethyl)-3,4,4a,9b-tetrahydrobenzofuro[3,2-b]pyridin-1(2H)-yl)methanone]	2.4	0.51								
Nc1nc2cnc(C(=O)N3CC4(CC4)C[C@@H]4Oc5cc(C(F)(F)F)ccc5[C@@H]43)cc2n2cncc12 [Ff-648, (4-aminoimidazo[1,5-a]pyrido[3,4-e]pyrazin-8-yl)((4aS,9bS)-7-(trifluoromethyl)-4a,9b-dihydro-2H-spiro[benzofuro[3,2-b]pyridine-3,1′-cyclopropan]-1(4H)-yl)methanone]										30 µM

Continued, in another order:

Kp [1, 3]	Kp [1, 4]	half-life ([2]; IV 0.5 mg/Kg)	clearance ([2]; IV 0.5 mg/Kg)	bioavailability [2]	half-life ([2]; IV 0.25 mg/Kg)	clearance ([2]; IV 0.25 mg/Kg)	Vd ([2]; IV 0.25 mg/Kg)	Vd ([2]; IV 0.5 mg/Kg)	Compound	IC50 (hERG)
0.96	0.13	7.9 h	4.33 mL/min/kg	134%					C[C@H]1CN(C(=O)c2cc3c(cc2F)nc(N)c2cncn23)[C@H]2c3ccc(C(F)(F)F)cc3C[C@H]2O1 (single isomer, unassigned) [Ff-81]	
1.2	0.28								C[C@@H]1CN(C(=O)c2cc3c(cc2F)nc(N)c2cncn23)[C@H]2c3cc(F)c(OC(F)(F)F)cc3C[C@H]2O1 (single isomer, unassigned) [Ff-197]	
0.99	0.16			73%	3.8 h	6.33 mL/min/kg	1.97 L/kg		Nc1nc2cnc(C(=O)N3CCC[C@@H]4Oc5cc(C(F)(F)F)cc(F)c5[C@@H]43)cc2n2cncc12 (single isomer, unassigned) [Fg-53]	
1.78	0.19	8.7 h	3.17 mL/min/kg	68%	3.9 h	6.5 mL/min/kg	1.78 L/kg	2 L/kg	Nc1nc2cc(F)c(C(=O)N3CCC[C@@H]4Oc5cc(C(F)(F)F)ccc5[C@@H]43)cc2n2cncc12 [Ff-104, (4-amino-7-fluoroimidazo[1,5-a]quinoxalin-8-yl)((4aS,9bS)-7-(trifluoromethyl)-3,4,4a,9b-tetrahydrobenzofuro[3,2-b]pyridin-1(2H)-yl)methanone]	
0.76	0.1								Nc1nc2cnc(C(=O)N3CCC[C@@H]4Oc5cc(C(F)(F)F)ccc5[C@@H]43)cc2n2cncc12 [Ff-110, (4-aminoimidazo[1,5-a]pyrido[3,4-e]pyrazin-8-yl)((4aS,9bS)-7-(trifluoromethyl)-3,4,4a,9b-tetrahydrobenzofuro[3,2-b]pyridin-1(2H)-yl)methanone]	
1.1	0.23								Nc1nc2ccc(C(=O)N3CCC[C@@H]4Oc5cc(C(F)(F)F)ccc5[C@@H]43)cc2n2cncc12 [Ff-111, (4-aminoimidazo[1,5-a]quinoxalin-8-yl)((4aS,9bS)-7-(trifluoromethyl)-3,4,4a,9b-tetrahydrobenzofuro[3,2-b]pyridin-1(2H)-yl)methanone]	
